{"source": "patent US20200060994A1", "about": "“METHODS OF TREATING PSYCHIATRIC STRESS DISORDERS” (Yeda Research and Development Co. Ltd., priority 2017, published 2020)", "key": {"[1]": {"system": "importin α5 KO mice", "assay": "Open field (OF) test, importin α5 KO mice", "type": "in vivo, mouse", "conditions": "FG-7142 5 mg/kg intraperitoneally, OF after 30 min", "procedure": "(§1) All drugs were administered by intraperitoneal injection (I.P.). […] A. CNS Drug Rev."}, "[2]": {"system": "importin α5 KO mice", "assay": "Elevated plus maze (EPM) test, importin α5 KO mice", "type": "in vivo, mouse", "conditions": "PF-543 10 mg/kg i.p.", "procedure": "as §1\n(§2) The EPM contains two open arms and two enclosed ones connected by a central square. Exploration on the open arms is reduced in high anxiety states while it is increased in low anxiety states [Walf, A. A. & Frye, C. A. Nat. Protoc. 2, 322-8 (2007)]. Mice were placed on the central platform facing one of the “open” arms to initiate a 5-minutes test session and the time spent in each arm was measured. The test was performed under 7 lx and 65 dB white noise. The number of entries into, the time spent/distance on the open arms and the percentage of the open arm entries compared with total number of arm entries were recorded using the VideoMot2 software (TSE System, Germany) or the Ethovision XT11 software (Noldus Information Technology, The Netherlands)."}, "[3]": {"system": "wild type C57BL6 mice", "assay": "Elevated plus maze (EPM) test, wild type mice", "type": "in vivo, mouse", "procedure": "as §1, §2"}, "[4]": {"system": "wild type C57BL6 mice", "assay": "Open field (OF) test, wild type mice", "conditions": "for anxiolytic properties / behavior in the OF test: 1 hour following i.p. injection vs vehicle, Sitosterol 100 mg/kg, Alvespimycin 75 mg/kg, Fluspirilene 10 mg/kg; for number of rearings in the OF center: larger cohort n=10 mice per group, P<0.01"}, "[5]": {"conditions": "S1P receptor agonist 0.1 mg/kg i.p., C57BL6, vs vehicle"}, "[6]": {"conditions": "S1P receptor agonist 0.1 mg/kg i.p., C57Bl6"}, "[7]": {"conditions": "β-sitosterol 100 mg/kg, 1 hour following injection, vs vehicle"}, "[8]": {"conditions": "β-sitosterol 100 mg/kg IP, 1 and 6 hours following injection, vs vehicle"}}, "note": "Entries after “also recorded” stand apart in the source; their conditions may differ. Counter-ions that a name gives are not always drawn."}
{"molecule": "CNC(=O)c1cc2c(cn1)[nH]c1ccccc12", "note": "[FG-7142]", "values": [{"measurement": "distance travelled in the center of the OF", "setting": "[1]", "value": "significantly decreases"}, {"measurement": "number of rearing events in the center", "setting": "[1]", "value": "significantly decreases"}, {"measurement": "anxiolytic phenotype of importin α5 KO mice in the OF test", "setting": "[1]; 5 mg/kg", "value": "reversed anxiolysis"}]}
{"molecule": "Cc1cc(CS(=O)(=O)c2ccccc2)cc(OCc2ccc(CN3CCC[C@@H]3CO)cc2)c1", "note": "[PF-543]", "values": [{"measurement": "distance travelled in the open arms", "setting": "[2]; importin α5 KO animals", "value": "significantly decreased"}, {"measurement": "time spent in the open arms", "setting": "[2]; importin α5 KO animals", "value": "significantly decreased"}, {"measurement": "anxiolytic phenotype of importin α5 KO mice in the EPM", "setting": "[2]; 10 mg/kg", "value": "attenuated; also recorded: reverse the anxiolytic response of importin α5 KOs towards WT values"}, {"measurement": "anxiety-related behavior of WT mice in the EPM", "setting": "[3]; PF-543 10 mg/kg i.p., WT mice", "value": "did not influence"}]}
{"molecule": "CO[C@H]1/C=C\\C=C(/C)C(=O)NC2=CC(=O)C(NCCN(C)C)=C(C[C@@H](C)C[C@H](OC)[C@H](O)[C@@H](C)/C=C(\\C)[C@@H]1OC(N)=O)C2=O", "note": "[alvespimycin]", "values": [{"measurement": "anxiolytic properties / behavior in the OF test", "setting": "[4]", "value": "marked yet variable differences; also recorded: anxiolytic effect"}, {"measurement": "rearing activity in the center", "setting": "[4]; alvespimycin 75 mg/kg i.p., 1 hour, single dosage regime, FIG. 12A", "value": "reaching statistical significance"}, {"measurement": "motor performances in the OF test", "setting": "[4]; alvespimycin, independent cohort n=10, FIG. 12B", "value": "without adverse effects"}, {"measurement": "number of rearings in the OF center", "setting": "[4]; alvespimycin, FIG. 12B", "value": "6.2±2.07"}, {"measurement": "number of rearings in the OF center", "setting": "[4]; alvespimycin, FIG. 12B, listed as Alvespimycin", "value": "increase"}, {"measurement": "time spent in the center area", "setting": "[4]; alvespimycin, n=10 per group, FIG. 12B, P=0.052", "value": "increased"}, {"measurement": "latency to access the center area", "setting": "[4]; alvespimycin, n=10 per group, FIG. 12B, P=0.08", "value": "increased"}, {"measurement": "number of visit in the center area", "setting": "[4]; alvespimycin, n=10 per group, FIG. 12B, P=0.09", "value": "increased"}]}
{"molecule": "CNCCC(Oc1ccc(C(F)(F)F)cc1)c1ccccc1", "note": "(stereo not drawn) [fluoxetine, Fluoxetine hydrochloride]", "values": [{"measurement": "anxiolytic effect in the OF test, dose-response", "setting": "[4]; fluoxetine 2, 5, 10 or 20 mg/kg vs vehicle, 10 minutes OF test", "value": "dose dependent anxiolytic effect"}, {"measurement": "anxiolytic effects in the OF test", "setting": "[4]; fluoxetine doses of 5 mg/kg and below", "value": "no apparent effect"}, {"measurement": "anxiolytic effects in the OF test", "setting": "[4]; fluoxetine doses of 10 mg/kg and above", "value": "significant anxiolytic effects"}]}
{"molecule": "O=C1NCN(c2ccccc2)C12CCN(CCCC(c1ccc(F)cc1)c1ccc(F)cc1)CC2", "note": "[fluspirilene]", "values": [{"measurement": "anxiolytic properties / behavior in the OF test", "setting": "[4]", "value": "anxiolytic effect"}]}
{"molecule": "CCc1cc(/C(C)=N/OCc2ccc(C3CCCCC3)c(C(F)(F)F)c2)ccc1CN1CC(C(=O)O)C1", "note": "[siponimod]", "values": [{"measurement": "time spent in the open arms of the EPM", "setting": "[3]; [5]", "value": "significant increase"}, {"measurement": "anxiety levels in the EPM assay", "setting": "[3]; [6]", "value": "markedly reduced"}, {"measurement": "distance in the open arms of the EPM", "setting": "[3]; siponimod 0.1 mg/kg i.p. every 3 days during 4 weeks, vs vehicle", "value": "significant increase"}, {"measurement": "distance travelled in the center of the OF", "setting": "[4]; [5]", "value": "significant increase"}, {"measurement": "time spent in the center of the OF", "setting": "[4]; [5]", "value": "significant increase"}, {"measurement": "anxiety levels in the OF assay", "setting": "[4]; [6]", "value": "markedly reduced"}, {"measurement": "center/border ratio (for the exploration time) in the OF", "setting": "[4]; siponimod 0.1 mg/kg i.p. every 3 days during 4 weeks, vs saline", "value": "higher"}]}
{"molecule": "CC[C@H](CC[C@@H](C)[C@H]1CC[C@H]2[C@@H]3CC=C4C[C@@H](O)CC[C@]4(C)[C@H]3CC[C@]12C)C(C)C", "note": "[β-sitosterol]", "values": [{"measurement": "distance in the open arms of the EPM", "setting": "[3]; [7]", "value": "significant increase"}, {"measurement": "time spent in the open arms of the EPM", "setting": "[3]; [7]", "value": "significant increase"}, {"measurement": "anxiolytic properties / behavior in the OF test", "setting": "[4]", "value": "anxiolytic effect"}, {"measurement": "distance travelled in the OF center", "setting": "[4]; [8]", "value": "increasing"}, {"measurement": "number of visits in the OF center", "setting": "[4]; [8]", "value": "increasing"}, {"measurement": "time course of anxiolytic effects in the OF test", "setting": "[4]; β-sitosterol by injection", "value": "apparent 1 hour post-injection and persisted until 6 hours following injection"}, {"measurement": "anxiolytic effect in the OF test, dose response", "setting": "[4]; β-sitosterol intraperitoneally at the indicated doses, 1 hour following injection", "value": "clear dose-dependent anxiolytic effects; also recorded: reaching significance for the highest dose tested"}]}
